Reference: patent US11065296B2, “Antimicrobial peptide, its analog and use” (City University of Hong Kong, priority 2018, dated 2021)
Entries after “also recorded” stand apart in the source; their conditions may differ. Peptide text beside a SMILES is read from it.

Assays:
E. cloacae BAA-1143 = assay type: cell-based
Experimental: (§1) MIC denotes the lowest concentration of an antimicrobial agent that can inhibit the growth of bacteria after overnight incubation.
(§2) Bacteria were grown in their respective media (Table 2 above) overnight at 37° C. or room temperature with constant shaking and then diluted to 10^6 CFU/ml in their respective medium. Stock solutions of peptides at 0.68 mM were prepared in distilled water. Bacteria and peptide were incubated (50 μl: 50 μl) to make the final peptide concentrations (0.68, 3.4, 6.8, 13.7, 34.1, 68.3, 136.5 μM) in a 96-microtitre plate and incubated for 24 h with constant shaking. […] Absorbance at 600 nm was detected every 3 h up to 24 h to obtain the growth curves. The minimal inhibition concentration (MIC) was defined as the lowest concentration of an antimicrobial agent that could inhibit the growth of bacteria after overnight incubation.

[1] = test system: Acinetobacter baumannii ATCC 19606; assay type: cell-based
Experimental: as §1, §2

[2] = test system: Klebsiella pneumoniae (NDM-1) ATCC BAA-2470; assay type: cell-based
Experimental: as §1, §2

[3] = test system: Multidrug-resistant S. aureus ATCC BAA-44; assay type: cell-based
Experimental: as §1, §2

[4] = test system: Staphylococcus epidermidis ATCC 12228; assay type: cell-based
Experimental: as §1, §2

E. tarda = experiment: Quantitative proteomic analysis of AMP-treated bacteria; assay type: cell-based; conditions: 6.8 μM, 1 hr
Experimental: Bacteria with or without AMP treatment for 1 hr at 6.8 μM were washed and lysed in 8 M of urea for 2 hrs. The lysate was then reduced in 10 mM of dithiothreitol (DTT) in 50 mM of ammonium bicarbonate (30 min at room temperature) and alkylated in 50 mM of […] (IAA) in 50 mM of ammonium bio-carbonate (20 min at room temperature). The samples were diluted 8 times with ammonium bicarbonate (50 mM, pH 8.0) so that the final concentration of urea was 1 M, followed by 2 μg of trypsin (Roche, Mannheim, Germany) for digestion. The mixtures were then incubated overnight at 37° C. and dried in a vacuum centrifuge (Eppendorf Concentrator plus). The peptides were dissolved in 20 μl of 0.1% trifluoroacetic acid (TFA), followed by ZipTip (Millipore, Billerica, Mass., USA) purification that was carried out in accordance with the manufacturer's instructions.
Mass spectrometry (MS) data were collected on an Orbitrap Fusion mass spectrometer coupled on-line with a nanoUPLC EASY-LC-1000 liquid chromatography system (ThermoFisher Scientific™, San Jose, Calif.). The peptides were eluted by using a microcapillary column with 50 cm×75 μm ID, PepMap C18, 2 μm particles (ThermoFisher Scientific™) with 2 to 80% acetonitrile in 0.1% formic acid at a flow rate of ˜350 nL/min for 120 min of gradient. They were ionized through electrospray ionization (positive mode 2.1 kV), and survey scans of peptide precursors from 350 to 1550 m/z were performed at a resolution of 120 K at 200 m/z. Tandem MS was performed by isolation at 1.2 Th with the quadrupole component, fragmentation with normalized collision energy of 35%, and rapid scan MS analysis in the ion trap. The MS2 ion count target was set to 10E4 and the maximum injection time was 250 ms. Only precursors with a charge state of 2-7 were fragmented for the MS2 analysis. The dynamic exclusion duration was set to 60 s with a 10 ppm of low and high mass tolerance around the selected precursor and its isotopes. The instrument was run in data dependent mode by using Orbitrap and an ion trap with […] cycles.
The raw data were analyzed by using Proteome Discoverer (Version 1.4.0.288. Thermo Fisher Scientific). The MS/MS spectra were searched with the Mascot search engine against the NCBI bacteria database 2014 (with 29,574 sequence entries). The peptides were generated from a Lys-C and tryptic digestion and the precursor mass tolerance was set as 25 ppm, and 0.6 Da for fragment mass tolerances. The oxidation of methionine and deamidation of N, Q were set as the dynamic modification, and the carbamidomethylation of cysteine-C as the static modification. The peptide spectral matches (PSMs) were validated by using a percolator based on q-values at a 1% false discovery rate (FDR). For protein identification, a high-confidence database search with a peptide target FDR (strict) of 0.1%, and target FDR (relaxed) 0.5% and ranked 1 peptides were used for peptide filtering. Identified peptides were grouped into individual protein clusters by scaffolding.
Peptide quantitation was carried out by using Progenesis LC-MS (version 4.1, Nonlinear) and as described in Babaei, F. et al. J. Proteome Res. Eversion, (2013). […] Following a statistical analysis, processing was carried out by using transformed “log-like” […] calculations of all the detected features. The total cumulative abundance was calculated by summing the abundance of all peptides that belonged to a respective protein. […]

CpxR = experiment: Quantitative real-time PCR; assay type: cell-based; conditions: E. coli
Source text: Each group has 6 biological replicates. […] Gene-specific primers were designed with Primer-BLAST (NCBI).

[5] = test system: six mammalian cell lines (HeLa, MDA-MB, MC3T3, MCF7, H1299, and AG06858); experiment: In vitro toxicity, 48 hour MTT assay; assay type: cell-based, Human; Mouse; conditions: concentrations close to the MIC for gram-negative bacteria
Experimental: FIG. 11A is a plot showing the effect of Peptide A on viability of cultured mammalian cells, incubated for 48 h in the presence of Peptide A at different concentrations (μg/ml), as determined by MTT assay. Cell viability represented as peptide treated cell numbers over medium-only control. Statistically significant difference as compared to controls (*: p<0.05, **: p<0.01, n=4). FIG. 11B is a plot showing the ability of Peptide A to protect medaka from lethal challenge of E. tarda ([…]). Medaka was injected with 1 μl of Peptide A (0.68 mM), with 1 μl of E. tarda (10^7 CFU/ml) and Peptide A (0.68 mM) mixture, or with E. tarda alone (1 μl of E. tarda:10^7 CFU/ml). […] 20 fish per group. Log-rank (Mantel-Cox) test was applied for the comparison of survival curves (**: p<0.01).
Mammalian cell lines (Hela, MDA MB, MC3T3, MCF7, H1299, and AG06858) were seeded into 96 well-plates one day before treatment at a density of 3×10^5 cells/ml for a 48 hour MTT assay. The peptides were directly dissolved in the medium to make a 136.5 μM stock. […] The resulting solution was measured by using a microplate reader (BMG Polarstar Optima) at a wavelength of 570 nm. The optical density (OD) values were recorded and cell viability was calculated based on the OD readings normalized to the untreated cells.

CpxA = conditions: E. tarda, 6.8 μM, 1 hr
Experimental: FIG. 9B is a plot showing the relative expression levels of CpxA, CpxR and RpoE in E. tarda upon treatment with Peptide A for 60 min at 6.8 μM. Results are expressed as 2^(−Delta Delta C (T)). FIG. 9C is a plot showing the CpxR gene expression in E. tarda after treatment with Peptide A (6.8 μM), Piscidin (7.5 μM), Ampicillin (143 μM) and Peptide A+Ampicillin (3.4 μM; 71.5 μM) for 1 hour. Results are expressed as 2^(−Delta Delta C (T)). […] Results expressed as log 2 fold change normalized with control group.
E. tarda or E. coli were treated with AMP or antibiotics or not treated as the control at inhibitory or subinhibitory for 1 hr. After that, the total RNA of the cells were collected by using the RNAprep pure cell/bacteria kit (TIANGEN), then reverse-transcribed into cDNA by using the One-Step FastQuant RT reagent kit with gDNase (TIANGEN). 18S ribosomal RNA (18S) was used as reference gene for qPCR normalization. Each group has 6 biological replicates. In brief, quantitative polymerase chain reaction (qPCR) assays were performed by using fluorescent dye powder SYBR Green PCR Master Mix and the ABI 7500 System. Gene-specific primers were designed with Primer-BLAST (NCBI). […] The relative expression levels (fold change) of the tested genes were calculated by using the relative expression based on the 2^(−Delta Delta C (T)) Method.

## CC[C@H](C)[C@H](N)C(=O)N[C@@H](CCCNC(=N)N)C(=O)N[C@H](C(=O)N[C@H](C(=O)N[C@@H](CC(C)C)C(=O)N[C@@H](CCCNC(=N)N)C(=O)N[C@@H](C)C(=O)N[C@@H](CCC(N)=O)C(=O)NCC(=O)N[C@@H](C)C(=O)N[C@@H](CC(C)C)C(=O)N[C@@H](CCCCN)C(=O)N[C@H](C(=O)O)[C@@H](C)CC)[C@@H](C)CC)[C@@H](C)CC [Peptide A, IRIILRAQGALKI] (H-IRIILRAQGALKI-OH; N-terminus and C-terminus assumed)
E. cloacae BAA-1143
  MICs: 21.8 µM
[1]
  MICs: 6.8 µM
[2]
  MICs: 21.8 µM
[3]
  MICs: 21.8 µM
[4]
  MICs: 2.7 µM
E. tarda
  expression of CPX two component pathway proteins DsbC, PpiA and FkpA: down-regulated
  expression of DegQ, RpsO and YfiO (downstream proteins of the RpoE pathway): up-regulation
  expression of Peptidyl-prolyl isomerase family members PpiA, PpiB, FkpA and SurA: highly suppressed
  expression of proteins involved in outer membrane assembly, peptidoglycan synthesis, and metal ion binding: induced
  proteins differentially expressed (at least one-fold difference) of 251 high confidence proteins: 74
CpxR
  CpxR expression: inhibition of CpxR
[5]
  cytotoxic effect (cell viability, MTT): No obvious toxicity; also recorded: relatively nontoxic
CpxA
  CpxA mRNA expression: remains unaffected
